In patent publication US20240366577A1, “CONTROLLED LONG-TERM DRUG DELIVERY AND METHODS THEREOF” (THE JOHNS HOPKINS UNIVERSITY, priority 2021, published 2024):

Tests used:
[1] = tested on: choroidal neovascularization (CNV); assay: mouse laser-induced CNV model, fundus fluorescein angiography; assay type: in vivo; details: two intravitreal doses (14 days before and 1 day after laser) vs saline; p=0.0290 single lesion analysis
Source text: Wet age-related macular degeneration (wet AMD) is a leading cause of blindness in the U.S. and globally, requiring effective treatments, particularly with the use of drugs or treatments that allow sustained management of the disease. Choroidal neovascularization (CNV), or pathologic angiogenesis, is the cause of the visual loss that occurs in wet AMD. Therefore, sorafenib is also a possible treatment for wet AMD, but the effect of the drug when delivered in a liquid form is brief. It has been shown that optimized crystal formulations of sorafenib providing sustained release have the potential to work over a longer period of time. As shown herein, the experiments tested the effect of intravitreal administration of crystal sorafenib vs. vehicle, in saline, of sorafenib in a mouse laser-induced CNV model. FIG. 5 depicts a timeline of an experimental procedure, in accordance with the present disclosure. Crystalline sorafenib, as described herein, was administered to two batches of mice. In the first batch of mice, 16 mice were injected, 14 days before a laser treatment and 1 day after laser treatment. In the second batch of mice, 13 mice were injected 7 days before laser treatment. FIGS. 6A-6D depict charts of fluorescent intensity as measured with the use of fundus fluorescein angiography (FFA), according to the present disclosure. […]

[2] = tested on: endothelial cell marker Cd31; assay: qPCR of retrieved tumors: Cd31; assay type: in vivo, BALB/c mice; details: crystals, compared to daily liquid bolus drug treatment; tumors at end of study
Method: To determine the anti-angiogenic efficacy of each sorafenib treatment group, qPCR gene expression analysis was performed on retrieved tumors at the conclusion of the study. In particular, analysis for levels of endothelial cell marker Cd31, vascular endothelial-cadherin (VE-Cdh), smooth muscle pericyte marker alpha Smooth Muscle actin (aSMact), and stem/progenitor cell marker Cd34 were conducted, as shown in FIG. 3F.
1 mL of TRIzol reagent (Cat#15596018, ThermoFisher) was added to 100 mg samples of tumor tissue and broken down with a power homogenizer (Polytron/VWR). Homogenized samples were incubated at room temperature for 5 min for complete nucleoprotein dissociation, then 0.2 ml of chloroform (Sigma) was added to each sample. Samples were shaken vigorously for 15 seconds and incubated at room temperature for 3 min before centrifuging at 12,000 g for 15 min at 4° C. The uppermost supernatant layer was pipetted into a 1.7 mL Eppendorf tube, with the remaining interphase and organic layer discarded. 0.5 mL of isopropanol (Sigma) was added to each sample, and then samples were incubated for 10 min. Samples were centrifuged at 12,000 g for 10 min at 4° C. […] Depending on size of resultant pellet, pellets were resuspended in 50-100 μL, and nucleic acid concentration was measured using a NanoDrop 2000 spectrophotometer (ThermoFisher). […]

Question: Which results are given for `CNC(=O)c1cc(Oc2ccc(NC(=O)Nc3ccc(Cl)c(C(F)(F)F)c3)cc2)ccn1` [crystalline sorafenib, sorafenib]?
Answer: CNV (FFA fluorescent intensity) [1]: appears to reduce CNV; endothelial cell Cd31 expression levels (qPCR) [2]: more effectively reduced
